Values after ≈ are worked out from the molar mass of the structure shown. Active and inactive are the calls of the source. The calls are words filed in the database; no cut-off is given here.
What was measured:
[1] = test system: HepG2; test: Antitumor activity against human HepG2 cells xenografted in BALB/c nude mouse assessed as tumor growth inhibition at 1 mg/kg, iv qd administered daily for 21 consecutive days and measured every 3 days upto 21 days relative to control; assay type: functional; settings: HepG2, 504 h, time <= 21 day, read-out: TGI
[2] = test system: HepG2; test: Antiproliferative activity against human HepG2 cells by MTT assay; assay type: functional, cell-based
[3] = Clearance in ICR mouse at 45 mg/kg, po measured after 0.083 to 12 hrs by UPLC-MS/MS analysis; assay type: ADME, organism-based; settings: in vivo, time 0.083-12 hrs
[4] = Half life in ICR mouse at 45 mg/kg, po measured after 0.083 to 12 hrs by UPLC-MS/MS analysis; assay type: ADME, organism-based; settings: in vivo, time 0.083-12 hrs
[5] = test system: Bel-7402; test: Antiproliferative activity against human Bel-7402 cells by MTT assay; assay type: functional, cell-based
[6] = Toxicity in ICR mouse assessed as effect on heart at 45 mg/kg, po measured after 2 weeks by H and E staining based analysis; assay type: organism-based; settings: in vivo, 336 h
[7] = Toxicity in ICR mouse assessed as change in body weight at 45 mg/kg, po qd measured for 14 days; assay type: organism-based; settings: in vivo, 336 h, time 14 day
[8] = Toxicity in BALB/c mouse xenografted with human HepG2 cells assessed as adverse effect at 15 to 45 mg/kg, po qd at 45 mg/kg, po treated daily for 21 days measured every 3 days for 21 days; assay type: organism-based; settings: in vivo, 504 h, dose 15-45 mg/kg, time 21 day
[9] = Drug distribution in ICR mouse liver at 100 mg/kg, ip measured upto 0.5 hrs by UPLC-MS/MS analysis; assay type: ADME, organism-based; settings: in vivo
[10] = Cmax in ICR mouse at 45 mg/kg, po measured after 0.083 to 12 hrs by UPLC-MS/MS analysis; assay type: ADME, organism-based; design: dose 45 mg/kg, time upper 12 hrs, time lower 0.083 hrs, route po; settings: in vivo
[11] = Solubility of the compound in PBS/DMSO (95/5% V/V) at pH 7.2 to 7.4; assay type: physicochemical
[12] = MRT (0 to t) in ICR mouse at 10 mg/kg, iv measured after 0.083 to 12 hrs by UPLC-MS/MS analysis; assay type: ADME, organism-based; settings: in vivo, time 0.083-12 hrs
[13] = Renal toxicity in ICR mouse assessed as change in blood BUN level at 45 mg/kg, po by biochemical assay; assay type: organism-based; settings: in vivo
[14] = Solubility of the compound in saline/DMSO/solutol HS-15 (85/5/10% V/V/V) at pH 7.4; assay type: physicochemical
[15] = Renal toxicity in ICR mouse assessed as change in blood CREA level at 45 mg/kg, po by biochemical assay; assay type: organism-based; settings: in vivo
[16] = Toxicity in ICR mouse assessed as effect on liver at 45 mg/kg, po measured after 2 weeks by H and E staining based analysis; assay type: organism-based; settings: in vivo, 336 h
[17] = Hepatotoxicity in ICR mouse assessed as change in blood AST level at 45 mg/kg, po by biochemical assay; assay type: toxicity, organism-based; settings: in vivo
[18] = AUC(0 to t) in ICR mouse at 10 mg/kg, iv measured after 0.083 to 12 hrs by UPLC-MS/MS analysis; assay type: ADME, organism-based; design: time upper 12 hrs, dose 10 mg/kg, time lower 0.083 hrs, route iv; settings: in vivo
[19] = Stability of the compound in absence of light of 100 lux measured of 3 days by HPLC analysis; assay type: physicochemical; settings: 72 h; time 3 day
[20] = Drug elimination in ICR mouse heart at 100 mg/kg, ip measured for 1.5 hrs by UPLC-MS/MS analysis; assay type: ADME, organism-based; settings: in vivo
[21] = Toxicity in ICR mouse assessed as effect on spleen at 45 mg/kg, po measured after 2 weeks by H and E staining based analysis; assay type: organism-based; settings: in vivo, 336 h
[22] = Acute toxicity in ip dosed ICR mouse assessed as maximum tolerated dose; assay type: organism-based; settings: in vivo
[23] = test system: HepG2; test: Antitumor activity against human HepG2 cells xenografted in BALB/c nude mouse assessed as tumor growth inhibition at 9 mg/kg, iv qd administered daily for 21 consecutive days and measured every 3 days upto 21 days relative to control; assay type: functional; settings: HepG2, 504 h, time <= 21 day, read-out: TGI
[24] = Solubility of the compound in 0.9% NaCl at pH 7.4; assay type: physicochemical
[25] = Drug distribution in ICR mouse heart at 100 mg/kg, ip measured upto 0.5 hrs by UPLC-MS/MS analysis; assay type: ADME, organism-based; settings: in vivo
[26] = Drug elimination in ICR mouse kidney at 100 mg/kg, ip measured for 1.5 hrs by UPLC-MS/MS analysis; assay type: ADME, organism-based; settings: in vivo
[27] = biological target: Voltage-gated inwardly rectifying potassium channel KCNH2 (Homo sapiens, UniProt Q12809); test: Inhibtion of hERG transfected in HEK293 cells by whole cell patch clamp method; assay type: toxicity, cell-based
Chain of Voltage-gated inwardly rectifying potassium channel KCNH2 (Q12809 whole entry): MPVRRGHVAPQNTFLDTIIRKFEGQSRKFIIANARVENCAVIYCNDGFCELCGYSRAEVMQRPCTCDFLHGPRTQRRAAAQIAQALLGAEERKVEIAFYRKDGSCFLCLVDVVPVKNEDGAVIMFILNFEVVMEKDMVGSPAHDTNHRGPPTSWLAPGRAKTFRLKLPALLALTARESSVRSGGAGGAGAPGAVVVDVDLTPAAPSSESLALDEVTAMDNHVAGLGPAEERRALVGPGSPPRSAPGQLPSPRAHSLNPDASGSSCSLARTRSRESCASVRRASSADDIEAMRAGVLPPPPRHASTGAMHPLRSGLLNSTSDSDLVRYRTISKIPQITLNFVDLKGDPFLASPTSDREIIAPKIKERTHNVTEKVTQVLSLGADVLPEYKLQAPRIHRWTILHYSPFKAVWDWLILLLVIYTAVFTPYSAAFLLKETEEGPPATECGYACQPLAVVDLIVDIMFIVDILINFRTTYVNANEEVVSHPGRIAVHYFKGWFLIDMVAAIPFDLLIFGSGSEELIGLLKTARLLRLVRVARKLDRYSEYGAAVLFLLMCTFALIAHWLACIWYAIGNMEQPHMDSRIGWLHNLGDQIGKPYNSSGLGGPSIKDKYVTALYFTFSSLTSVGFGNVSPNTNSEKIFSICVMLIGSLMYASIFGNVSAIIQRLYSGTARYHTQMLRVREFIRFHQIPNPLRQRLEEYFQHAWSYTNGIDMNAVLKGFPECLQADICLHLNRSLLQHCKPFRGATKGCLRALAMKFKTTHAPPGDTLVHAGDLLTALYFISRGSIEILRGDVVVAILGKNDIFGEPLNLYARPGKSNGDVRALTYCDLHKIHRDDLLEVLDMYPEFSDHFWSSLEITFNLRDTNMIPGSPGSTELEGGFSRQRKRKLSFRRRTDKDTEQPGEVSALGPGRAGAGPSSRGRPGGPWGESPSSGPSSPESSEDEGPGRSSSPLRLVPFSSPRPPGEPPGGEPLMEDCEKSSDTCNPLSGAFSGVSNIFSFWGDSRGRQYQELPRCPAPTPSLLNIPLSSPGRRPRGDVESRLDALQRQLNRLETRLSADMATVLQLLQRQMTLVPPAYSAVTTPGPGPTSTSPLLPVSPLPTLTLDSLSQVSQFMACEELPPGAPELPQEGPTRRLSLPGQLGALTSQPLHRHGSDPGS

[28] = Solubility of the compound in saline/PEG400 (80/20% V/V) at pH 7.4; assay type: physicochemical
[29] = Renal toxicity in ICR mouse assessed as change in blood CK level at 45 mg/kg, po by biochemical assay; assay type: organism-based; settings: in vivo
[30] = Solubility of the compound in saline/DMSO (95/5% V/V) at pH 7.4; assay type: physicochemical
[31] = Drug distribution in ICR mouse kidney at 100 mg/kg, ip measured upto 0.5 hrs by UPLC-MS/MS analysis; assay type: ADME, organism-based; settings: in vivo
[32] = Stability of the compound in PBS at pH 4 to 9 measured at 25 degree C measured of 7 days by HPLC analysis; assay type: physicochemical; settings: buffer, pH 4, 168 h; time 7 day
[33] = Renal toxicity in ICR mouse assessed as change in blood UREA level at 45 mg/kg, po by biochemical assay; assay type: organism-based; settings: in vivo
[34] = Toxicity in ICR mouse assessed as mortality at 100 mg/kg, ip qd measured for 14 days; assay type: organism-based; settings: in vivo, 336 h, time 14 day
[35] = Cmax in ICR mouse at 10 mg/kg, iv measured after 0.083 to 12 hrs by UPLC-MS/MS analysis; assay type: ADME, organism-based; design: time 0.083-12 hrs, dose 10 mg/kg, route iv; settings: in vivo
[36] = Toxicity in ICR mouse assessed as effect on kidney at 45 mg/kg, po measured after 2 weeks by H and E staining based analysis; assay type: organism-based; settings: in vivo, 336 h
[37] = Renal toxicity in ICR mouse assessed as change in blood UA level at 45 mg/kg, po by biochemical assay; assay type: organism-based; settings: in vivo
[38] = Drug elimination in ICR mouse spleen at 100 mg/kg, ip measured for 1.5 hrs by UPLC-MS/MS analysis; assay type: ADME, organism-based; settings: in vivo
[39] = test system: HepG2; test: Antitumor activity against human HepG2 cells xenografted in BALB/c nude mouse assessed as tumor growth inhibition at 45 mg/kg, po qd administered daily for 21 consecutive days and measured every 3 days upto 21 days relative to control; assay type: functional; settings: HepG2, 504 h, time <= 21 day, read-out: TGI
[40] = test system: HepG2; test: Antitumor activity against human HepG2 cells xenografted in BALB/c nude mouse assessed as reduction in tumor weight at 45 mg/kg, po qd administered daily for 21 consecutive days and measured on day 21; assay type: functional, organism-based; settings: time <= 21.0 day
[41] = Drug distribution in ICR mouse lung at 100 mg/kg, ip measured upto 0.5 hrs by UPLC-MS/MS analysis; assay type: ADME, organism-based; settings: in vivo
[42] = Solubility of the compound in saline/PEG400 (95/5% V/V) at pH 7.4; assay type: physicochemical
[43] = Oral bioavailability in ICR mouse at 45 mg/kg measured after 0.083 to 12 hrs by UPLC-MS/MS analysis; assay type: ADME, organism-based; settings: in vivo, time 0.083-12 hrs

For `C[C@H]1CCC/C=C/[C@@H]2C[C@H](OC(=O)OCc3cccnc3)C[C@H]2[C@H](O)/C=C/C(=O)O1`, which inhibition in vivo at 1 mg/kg [1] is on record?
The inhibition in vivo at 1 mg/kg was 36.6%.

What about the IC50 [2] of the same molecule?
The IC50 was 100 nM.

And the CL/F [3]?
Its CL/F is 598 L/h/kg.

What about the half-life [4] of the same molecule?
Its half-life is 7.35 h.

And the IC50 [5]?
Its IC50 is 70 nM.

What about the Activity [6] of the same molecule?
The Activity was “Non-Toxic”.

What about the Activity [7] of the same molecule?
The Activity was “Non-Toxic”.

What about the Activity [8] of the same molecule?
The Activity was “Non-Toxic”.

And the Drug uptake [9]?
The Drug uptake was “Active”.

And the Cmax [10]?
Its Cmax is 20.3 ng/mL.

What about the solubility [11] of the same molecule?
The solubility was < 1000 µg/mL.

What about the MRT last [12] of the same molecule?
The MRT last was 0.84 h.

And the Activity [13]?
Its Activity is “Non-Toxic”.

What about the solubility [14] of the same molecule?
Its solubility is 15000 µg/mL (≈ 36100 µM).

And the Activity [15]?
The Activity was “Non-Toxic”.

And the Activity [16]?
The Activity was “Non-Toxic”.

What about the Activity [17] of the same molecule?
The Activity was “Non-Toxic”.

And the AUC(0-t) [18]?
Its AUC(0-t) is 519 ng·h/mL.

And the Stability [19]?
The Stability was “Stable”.

And the Drug excretion [20]?
The Drug excretion was “Active”.

What about the Activity [21] of the same molecule?
The Activity was “Non-Toxic”.

What about the MTD [22] of the same molecule?
The MTD was > 100 mg/kg.

What about the inhibition in vivo at 9 mg/kg [23] of the same molecule?
Its inhibition in vivo at 9 mg/kg is 48.3%.

What about the solubility [24] of the same molecule?
The solubility was < 1000 µg/mL.

And the Drug uptake [25]?
Its Drug uptake is “Active”.

What about the Drug excretion [26] of the same molecule?
The Drug excretion was “Active”.

And the IC50 [27]?
Its IC50 is > 30000 nM.

And the solubility [28]?
The solubility was < 1000 µg/mL.

What about the Activity [29] of the same molecule?
The Activity was “Non-Toxic”.

What about the solubility [30] of the same molecule?
The solubility was < 1000 µg/mL.

What about the Drug uptake [31] of the same molecule?
Its Drug uptake is “Active”.

And the Stability [32]?
Its Stability is “Stable”.

What about the Activity [33] of the same molecule?
Its Activity is “Non-Toxic”.

And the Activity [34]?
Its Activity is “Non-Toxic”.

What about the Cmax [35] of the same molecule?
The Cmax was 2060 ng/mL.

What about the Activity [36] of the same molecule?
Its Activity is “Non-Toxic”.

What about the Activity [37] of the same molecule?
Its Activity is “Non-Toxic”.

What about the Drug excretion [38] of the same molecule?
The Drug excretion was “Active”.

What about the inhibition in vivo at 45 mg/kg [39] of the same molecule?
Its inhibition in vivo at 45 mg/kg is 61%.

What about the Activity [40] of the same molecule?
The Activity was “Active”.

And the Drug uptake [41]?
Its Drug uptake is “Active”.

And the solubility [42]?
The solubility was < 1000 µg/mL.

What about the bioavailability [43] of the same molecule?
The bioavailability was 2.26%.

Reference: ChEMBL document CHEMBL5113532, “Design and Characterization of a Natural Arf-GEFs Inhibitor Prodrug CHNQD-01255 with Potent Anti-Hepatocellular Carcinoma Efficacy In Vivo” (J Med Chem, 2022)
